Assay [1] concerns the target T1, M1 muscarinic receptor (Homo sapiens, UniProt P11229).
T1 construct: expressed in transfected cells; host or cells: CHO (M1-CHO)
T1 sequence (P11229 1-460): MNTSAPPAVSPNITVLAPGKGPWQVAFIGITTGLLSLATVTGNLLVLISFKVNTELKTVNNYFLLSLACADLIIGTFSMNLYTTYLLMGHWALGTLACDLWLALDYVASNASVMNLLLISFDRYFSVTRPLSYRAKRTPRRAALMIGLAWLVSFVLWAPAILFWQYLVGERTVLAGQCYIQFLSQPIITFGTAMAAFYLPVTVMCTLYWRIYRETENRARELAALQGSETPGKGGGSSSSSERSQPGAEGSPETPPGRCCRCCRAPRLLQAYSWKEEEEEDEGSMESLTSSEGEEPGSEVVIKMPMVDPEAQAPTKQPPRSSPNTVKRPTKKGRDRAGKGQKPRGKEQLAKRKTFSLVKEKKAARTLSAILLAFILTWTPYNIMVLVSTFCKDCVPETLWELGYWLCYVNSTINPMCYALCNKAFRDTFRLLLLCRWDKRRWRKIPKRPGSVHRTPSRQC
Description: Functional mobilization of intracellular calcium (FLIPR), M1-CHO cells. The note with it: for Emax: 100% efficacy is the maximum response obtained using Carbachol as a control; for M1 Activity: M1-CHO cells, FLIPR calcium mobilization. It is filed as cell-based. In outline: (§1)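 Calcium flux recorded 60 s (ex 488, em 540 nm) in dye-loaded M1- or M4-CHO cells in pH 7.4 buffer with 1 mM probenecid. Inhibition measured against carbachol EC80 after 15 min compound pre-incubation or co-addition; agonism measured by compound addition alone. Final DMSO 0.5%.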

The target in assay [2] is T2, M4 muscarinic receptor (Homo sapiens, UniProt P08173).
T2 construct: expressed in transfected cells; host or cells: CHO (M4-CHO)
T2 sequence (P08173 1-479): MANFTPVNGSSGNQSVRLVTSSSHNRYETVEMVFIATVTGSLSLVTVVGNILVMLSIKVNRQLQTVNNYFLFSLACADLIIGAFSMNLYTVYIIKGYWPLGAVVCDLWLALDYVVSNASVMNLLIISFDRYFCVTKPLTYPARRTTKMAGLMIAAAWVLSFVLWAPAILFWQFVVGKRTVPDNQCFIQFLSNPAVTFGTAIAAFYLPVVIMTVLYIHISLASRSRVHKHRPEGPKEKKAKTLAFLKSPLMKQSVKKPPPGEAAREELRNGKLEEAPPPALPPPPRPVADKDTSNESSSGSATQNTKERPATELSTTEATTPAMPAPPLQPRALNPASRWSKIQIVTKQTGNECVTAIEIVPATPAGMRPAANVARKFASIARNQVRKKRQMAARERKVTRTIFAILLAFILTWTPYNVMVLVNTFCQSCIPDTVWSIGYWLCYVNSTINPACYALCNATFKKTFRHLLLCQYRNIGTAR
Description: Functional mobilization of intracellular calcium (FLIPR), M4-CHO cells. Type of assay: cell-based. Conditions: for Emax: 100% efficacy is the maximum response obtained using Carbachol as a control; for M4 Activity: M4-CHO cells, FLIPR calcium mobilization. The method, boiled down:
as §1

The source of these data is patent US7863449B2, “Modulators of muscarinic receptors” (Vertex Pharmaceuticals Incorporated, priority 2004, dated 2011).

Bounds are passed on as bounds.

In the case of `COCCOC(=O)N1C2CCC1CC(N1CCC3(CC1)CN(S(=O)(=O)N(C)C)Cc1ccccc13)C2` (stereo not shown) [compound 249], in assay [1], the Emax is 25 to 100% and the “M1 Activity” value is “+++ (activity was measured to be less than 1.0 μM)”. In assay [2], the Emax is 25 to 100% and the “M4 Activity” value is “+++ (activity was measured to be less than 1.0 μM)”.
As for `CCOC(=O)N1CCC(N2CCC3(CC2)CN(C(=O)C2CCC2)Cc2ccccc23)CC1` [compound 250], in assay [1], the Emax lay in the range of 25 to 100% and the “M1 Activity” value is given as “+++ (activity was measured to be less than 1.0 μM)”. Also, in assay [2], the maximal effect (Emax) fell in the range of 25 to 100% and the “M4 Activity” value is on record as “+++ (activity was measured to be less than 1.0 μM)”.
Regarding `CCOC(=O)N1C2CCC1CC(N1CCC3(CC1)CN(S(=O)(=O)c1ccc(C(F)(F)F)cc1)Cc1ccccc13)C2` (stereo not shown) [compound 251], in assay [1], the Emax fell in the range of 25 to 100% and the “M1 Activity” value is “+++ (activity was measured to be less than 1.0 μM)”. Moreover, in assay [2], the Emax was in the range of 25 to 100% and the “M4 Activity” value was “+++ (activity was measured to be less than 1.0 μM)”.
With `CC(=O)N1Cc2ccccc2C2(CCN(CC3CCN(C(=O)OC4CCCC4)CC3)CC2)C1` [compound 252], in assay [1], the maximal effect (Emax) is less than 25% and the “M1 Activity” value is on record as “+ (activity was measured to be greater than 5.0 μM)”. In assay [2], the maximal response (Emax) was less than 25% and the “M4 Activity” value is “+ (activity was measured to be greater than 5.0 μM)”.
With `CCOC(=O)N1C2CCC1CC(N1CCC3(CC1)CN(S(=O)(=O)c1cccc(Cl)c1)Cc1ccccc13)C2` (stereo not shown) [compound 253], in assay [1], the maximal response (Emax) is 25 to 100% and the “M1 Activity” value is “+++ (activity was measured to be less than 1.0 μM)”. Further, in assay [2], the maximum response (Emax) fell in the range of 25 to 100% and the “M4 Activity” value is “+++ (activity was measured to be less than 1.0 μM)”.
As for `CCCOC(=O)N1Cc2ccccc2C2(CCN(C3CCN(C(=O)OCC)CC3)CC2)C1` [compound 254], in assay [1], the Emax is 25 to 100% and the “M1 Activity” value is “+++ (activity was measured to be less than 1.0 μM)”. Besides, in assay [2], the maximal effect (Emax) is 25 to 100% and the “M4 Activity” value is reported as “+++ (activity was measured to be less than 1.0 μM)”.
In the case of `CCOCCN1CCC2(CC1)CN(C(C)=O)Cc1ccccc12` [compound 256], the Emax in assay [1] and in assay [2] was less than 25% each time.
For `CC(=O)N1Cc2ccccc2C2(CCN(C3CCN(C(=O)OC4CCC4)CC3)CC2)C1` [compound 258], in assay [1], the maximum response (Emax) was in the range of 25 to 100% and the “M1 Activity” value is on record as “+++ (activity was measured to be less than 1.0 μM)”. In assay [2], the Emax was 25 to 100% and the “M4 Activity” value is “+++ (activity was measured to be less than 1.0 μM)”.
With `CCOC(=O)N1CCC(N2CCC3(CC2)CN(C(=O)c2nc(C)oc2C)Cc2ccccc23)CC1` [compound 261], in assay [1], the Emax lay within 25 to 100% and the “M1 Activity” value is given as “+++ (activity was measured to be less than 1.0 μM)”. In assay [2], the Emax was in the range of 25 to 100% and the “M4 Activity” value is “+++ (activity was measured to be less than 1.0 μM)”.
Take `CCOC(=O)N1CCC(CN2CCC3(CC2)CN(C(=O)OC2CCCC2)Cc2ccccc23)CC1` [compound 263]: in assay [1], the Emax lay within 25 to 100% and the “M1 Activity” value was “+++ (activity was measured to be less than 1.0 μM)”. Also, in assay [2], the Emax lay within 25 to 100% and the “M4 Activity” value is recorded as “+++ (activity was measured to be less than 1.0 μM)”.
For the compound `CC(=O)N1Cc2ccccc2C2(CCN(CC3CCCOC3)CC2)C1` (stereo not shown) [compound 266], in assay [1], the Emax was less than 25% and the “M1 Activity” value was “+ (activity was measured to be greater than 5.0 μM)”. Also, in assay [2], the Emax is less than 25% and the “M4 Activity” value was “+ (activity was measured to be greater than 5.0 μM)”.
For the compound `O=C1NC2(CCN(CC3CC4C=CC3C4)CC2)c2ccccc21` (stereo not shown) [compound 267, 1′-(bicyclo[2.2.1]hept-5-en-2-ylmethyl)spiro[isoindoline-1,4′-piperidin]-3-one], in assay [1], the maximal effect (Emax) was in the range of 25 to 100% and the “M1 Activity” value is listed as “++ (activity was measured to be from 1.0 μM to 5.0 μM)”. In assay [2], the Emax lay within 25 to 100% and the “M4 Activity” value was “++ (activity was measured to be from 1.0 μM to 5.0 μM)”.
As to `CC(=O)N1Cc2ccccc2C2(CCN(C3CCSCC3)CC2)C1` [compound 268], in assay [1], the Emax lay in the range of 25 to 100% and the “M1 Activity” value is recorded as “++ (activity was measured to be from 1.0 μM to 5.0 μM)”. Also, in assay [2], the Emax fell in the range of 25 to 100% and the “M4 Activity” value was “++ (activity was measured to be from 1.0 μM to 5.0 μM)”.
`CCOC(=O)N1CCC(CN2CCC3(CC2)CN(C(=O)C(C)C)Cc2ccccc23)CC1` [compound 270]: in assay [1], the maximal effect (Emax) was in the range of 25 to 100% and the “M1 Activity” value is reported as “+++ (activity was measured to be less than 1.0 μM)”. Moreover, in assay [2], the Emax was 25 to 100% and the “M4 Activity” value was “+++ (activity was measured to be less than 1.0 μM)”.
Regarding `CC(=O)N1Cc2ccccc2C2(CCN(Cc3cccnc3)CC2)C1` [compound 274], in assay [1], the Emax is less than 25% and the “M1 Activity” value is “+ (activity was measured to be greater than 5.0 μM)”. In assay [2], the maximal response (Emax) is less than 25% and the “M4 Activity” value was “+ (activity was measured to be greater than 5.0 μM)”.
Turning to `CCOC(=O)N1CCC(CN2CCC3(CC2)CN(C(=O)c2nc(C)oc2C)Cc2ccccc23)CC1` [compound 275], in assay [1], the Emax is 25 to 100% and the “M1 Activity” value is recorded as “+++ (activity was measured to be less than 1.0 μM)”. In assay [2], the Emax is 25 to 100% and the “M4 Activity” value is given as “+++ (activity was measured to be less than 1.0 μM)”.
Regarding `COC(=O)c1ccc(CN2CCC3(CC2)CN(C(C)=O)Cc2ccccc23)cc1` [compound 276], in assay [1], the maximum response (Emax) lay within 25 to 100% and the “M1 Activity” value is “++ (activity was measured to be from 1.0 μM to 5.0 μM)”. Moreover, in assay [2], the maximum response (Emax) was in the range of 25 to 100% and the “M4 Activity” value was “++ (activity was measured to be from 1.0 μM to 5.0 μM)”.
On to `CCOC(=O)N1CCC(N2CCC3(CC2)OC(=O)c2ccc(C)cc23)CC1` [compound 277], for which, in assay [1], the maximum response (Emax) is 25 to 100% and the “M1 Activity” value is on record as “+++ (activity was measured to be less than 1.0 μM)”. In assay [2], the maximal response (Emax) is 25 to 100% and the “M4 Activity” value is “+++ (activity was measured to be less than 1.0 μM)”.
Regarding `CCOC(=O)N1CCC(N2CCC3(CC2)CN(C(=O)C(C)C)Cc2ccccc23)CC1` [compound 279], in assay [1], the maximal response (Emax) fell in the range of 25 to 100% and the “M1 Activity” value was “+++ (activity was measured to be less than 1.0 μM)”. In addition, in assay [2], the Emax was 25 to 100% and the “M4 Activity” value is “+++ (activity was measured to be less than 1.0 μM)”.
Take `CCOC(=O)N1CCC(N2CCC3(CC2)CN(C(=O)NC2CCCC2)Cc2ccccc23)CC1` [compound 283]: in assay [1], the Emax fell in the range of 25 to 100% and the “M1 Activity” value is listed as “+++ (activity was measured to be less than 1.0 μM)”. Besides, in assay [2], the maximum response (Emax) is 25 to 100% and the “M4 Activity” value is “+++ (activity was measured to be less than 1.0 μM)”.
As to `CCOC(=O)N1CCC(CN2CCC3(CC2)CN(C(=O)C2CCC2)Cc2ccccc23)CC1` [compound 284], in assay [1], the Emax lay within 25 to 100% and the “M1 Activity” value is on record as “+++ (activity was measured to be less than 1.0 μM)”. In addition, in assay [2], the Emax was 25 to 100% and the “M4 Activity” value is on record as “+++ (activity was measured to be less than 1.0 μM)”.
`CCOC(=O)N1CCC(N2CCC3(CC2)CN(C(C)=O)Cc2ccccc23)CC1` [compound 286]: in assay [1], the maximal effect (Emax) fell in the range of 25 to 100% and the “M1 Activity” value is “+++ (activity was measured to be less than 1.0 μM)”. Further, in assay [2], the maximal effect (Emax) lay in the range of 25 to 100% and the “M4 Activity” value is reported as “+++ (activity was measured to be less than 1.0 μM)”.
For `CCCOC(=O)N1CC(CN2CCC3(CC2)CN(C(C)=O)Cc2ccccc23)C1` [compound 287], in assay [1], the Emax was less than 25% and the “M1 Activity” value is recorded as “+ (activity was measured to be greater than 5.0 μM)”. Further, in assay [2], the Emax is less than 25% and the “M4 Activity” value is “+ (activity was measured to be greater than 5.0 μM)”.
As for `CCOC(=O)N1CCC(CN2CCC3(CC2)CN(C(=O)N(C)C)Cc2ccccc23)CC1` [compound 288], in assay [1], the maximal response (Emax) is 25 to 100% and the “M1 Activity” value is recorded as “+++ (activity was measured to be less than 1.0 μM)”. Also, in assay [2], the Emax lay in the range of 25 to 100% and the “M4 Activity” value is listed as “+++ (activity was measured to be less than 1.0 μM)”.
